Results reported in the METLIN SMRT retention time set (Domingo-Almenara et al. 2019).

Experiment: gradient 5% acetonitrile 3 min, to 50% in 2 min, to 85% in 15 min, held 3 min, 100 µL/min
Settings: column: Zorbax Extend-C18 2.1 x 50 mm; eluents: water / acetonitrile, 0.1% formic acid
Procedure, shortened: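 Values are retention times taken from adduct peaks that software picked and an analyst inspected. The pure standards were run as mixtures of ~100 molecules on HPLC linked to a quadrupole time-of-flight mass spectrometer, in positive and negative ionization mode. A Zorbax Extend-C18 column (2.1 × 50 mm, 1.8 μm) was used at 100 μL/min with water and acetonitrile, each including 0.1% formic acid.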

RP-LC retention time | Structure (SMILES)
595 s | O=C1CC(c2ccccc2)N(C2CCC2)CCCCCN1 (configuration not stated)
944 s | CS(=O)(=O)N1CCC(C(=O)Nc2ccc(F)cc2F)Oc2ccc(Cl)cc21 (configuration not stated)
732 s | COc1ccc(Cl)cc1S(=O)(=O)N1CCC(n2cnnc2C(C)C)CC1
870 s | CCn1cc(S(=O)(=O)Nc2ccc(F)cc2Cl)c2cccnc21
909 s | Cc1sc(-c2noc(C(C)C)n2)cc1S(=O)(=O)N1CCC(C(=O)N2CCOCC2)CC1
971 s | O=C(C1CCN(S(=O)(=O)c2ccc(-c3noc(Cc4ccc(F)cc4)n3)cc2)CC1)N1CCCC1
889 s | COc1ccc(Cl)cc1NC(=O)C1CCN(S(=O)(=O)c2cc(C(=O)N(C)C)cs2)CC1
898 s | Cc1ccccc1C(=O)Nc1nc(-c2ccc3c(c2)NC(=O)CO3)c(C)s1
707 s | COc1ccc(S(=O)(=O)N2CCCC(C(=O)N3CCN(Cc4ccccc4)CC3)C2)cc1Cl (configuration not stated)
777 s | CCS(=O)(=O)N1CCC([C@@H](C)n2c(C)c(C(=O)NCc3c(OC)cc(C)[nH]c3=O)c3ccccc32)CC1
647 s | Cc1ccc(CNC(=O)Cn2c(N3CCOCC3)nc(C)cc2=O)cc1
722 s | CCOc1ccccc1C1NC(=O)N(CC(=O)NC2CCCCC2)C2=C1C(=O)OC2 (configuration not stated)
969 s | CC1CCN(C(=O)C2CCN(S(=O)(=O)c3ccc4c(c3)sc(=O)n4C(C)C)CC2)CC1
927 s | Cc1nc(-c2csc(S(=O)(=O)N3CCCC(C(=O)Nc4ccccc4)C3)c2)no1 (configuration not stated)
775 s | O=C(NCc1ccc2c(c1)OCO2)c1cn(-c2cc(N3CCCC3)ncn2)cn1
571 s | COc1ccc(CN2CCC(NC(=O)CCc3c(C)noc3C)C2)cn1 (configuration not stated)
995 s | CCc1cccc(C)c1NC(=O)C1CCCN(S(=O)(=O)c2cc(-c3noc(C)n3)cs2)C1 (configuration not stated)

RP-LC retention time | Structure (SMILES)
658 s | Cc1[nH]c(=O)[nH]c(=O)c1S(=O)(=O)NC1CC2CCC1C2 (configuration not stated)
812 s | CCn1cnc(S(=O)(=O)N2CCC(C(=O)Nc3nc4ccc(C)cc4s3)CC2)c1
600 s | CCCC(=O)N1CCCC1COc1ccc(C(=O)N2CCCC2)cc1 (configuration not stated)
619 s | COc1cc(C(=O)N2CCN(c3cc(N4CCCC4)nc(C)n3)CC2)cc(OC)c1OC
758 s | CCc1cccc(NC(=O)C2CCCN(c3ncnc4c3nc3n4CCCCC3)C2)c1 (configuration not stated)
1010 s | Cc1cc(C)cc(NC(=O)c2cn(C)nc2S(=O)(=O)N2CCSCC2)c1
728 s | O=C(Nc1nccs1)C1CCN(C(=O)c2cccc(C(F)(F)F)c2)CC1
570 s | Cc1nc(N2CCN(C)CC2)cc(N2CCN(C(=O)c3ccc(Br)o3)CC2)n1
622 s | O=C1CCN(C(=O)c2cccs2)CCCCCCN1
1020 s | Cc1ccc(N2CCN(S(=O)(=O)c3cc4c(s3)CCN(C(=O)C3CC3)C4)CC2)cc1
543 s | CC(C)CC(=O)N1CCCn2nc(-c3ccncc3)cc2C1
1210 s | Cc1sc(-c2cc(C(F)(F)F)on2)cc1S(=O)(=O)N1CCCCC1
594 s | CCCN1C(=O)c2cccnc2Sc2cc(C(=O)N3CCN(CC)CC3)ccc21
634 s | CNC(=O)C1CCCN(c2nc3ncn(CC(=O)Nc4ccccc4)c(=O)c3s2)C1 (configuration not stated)
701 s | Cc1[nH]c(C(=O)N2CCCC(C(=O)NCC3CCCO3)C2)c(C)c1C(=O)OC(C)C (configuration not stated)
952 s | Cn1nc(-c2nc(C3CC3)no2)c2c1CCN(S(=O)(=O)c1ccccc1Cl)C2
802 s | O=C(Nc1ccc(F)cc1F)N1CCC(N2CCN(Cc3ccc(F)cc3)C2=O)CC1

The remaining lines, values behind:

Structure (SMILES) | RP-LC retention time
COc1ccc(Cl)cc1NC(=O)c1cc(C2CC2)n2nccc2n1 | 1210 s
CCCc1c(C(=O)O)nnn1Cc1ccc(OC)cc1 | 710 s
O=C(c1ccc2ncccc2c1)N1C[C@@H](CO)[C@H](c2ccccn2)C1 | 543 s
CCC(C)n1c(=O)c2ccccc2n(Cc2nc(-c3ccc(C)cc3)no2)c1=O (configuration not stated) | 1240 s
CCc1ccc(-c2cc(C(N)=O)[nH]n2)cc1 | 708 s
COc1ccc(OC)c2sc(N(Cc3ccco3)C(=O)Cc3cccs3)nc12 | 1050 s
CC(C)CN1CCN(C(=O)c2cn3cc(Cl)ccc3n2)CC1 | 577 s
c1ccc(-c2nc3ccccn3c2Nc2ccc3c(c2)OCO3)cc1 | 677 s
Cc1cccc(Nc2nc3ccncc3n(Cc3ccccc3)c2=O)c1 | 673 s
CN(CC#N)C(=O)c1nn(C)c2c1COc1ccccc1-2 | 834 s
CCc1nc2cc(-c3noc(-c4cccc(F)c4)n3)ccc2o1 | 1230 s
O=C(c1cc(F)ccc1F)N1CCN(C(=O)c2nnn3c2COC(c2ccccc2)C3)CC1 (configuration not stated) | 817 s
O=C(NCc1ccc(F)c(Cl)c1)c1nnn(-c2ccccc2)c1-c1ccccn1 | 872 s
CN(C)C(CNS(=O)(=O)/C=C/c1ccccc1)c1cn(C)c2ccccc12 (configuration not stated) | 602 s
CCc1nnc([C@@H]2CC(F)(F)CN2C(=O)c2noc(C)c2COC)o1 | 752 s
COCCC(=O)N1CCC(c2noc(C3CC3)n2)C1 (configuration not stated) | 627 s
CCOc1ccc(N2C(=O)C3N=NN(Cc4nc(-c5ccc(Cl)cc5)no4)C3C2=O)cc1 (configuration not stated) | 722 s

Structure (SMILES) | RP-LC retention time
O=c1ccc(-c2ccc(F)cc2)nn1CCc1nc(-c2ccccc2Br)no1 | 1010 s
O=C(NCCc1csc(-c2ccccc2)n1)C1CCN(C(=O)COc2ccccc2)CC1 | 806 s
CCn1ccc(C(=O)NC(C)C)n1 | 642 s
COCC(=O)N(CCC(C)C)CC(=O)N1CCc2sccc2C1COc1ccccc1F (configuration not stated) | 958 s
O=C(c1ccco1)N1CCN(c2nc(-c3ccc(Cl)cc3)nc3ccccc23)CC1 | 747 s
CNc1nc(Nc2ccc(F)cc2)nc2ccccc12 | 655 s
COCCc1noc(C2CN(C(=O)Cn3ccnc3)C2)n1 | 580 s
COc1ccc(NC(=O)c2cc3c(=O)n(CC(C)C)ccc3n2C)cc1Cl | 895 s
CSc1cccc(NC(=O)c2nnn(-c3ccccc3)c2C)c1 | 1060 s
O=C(Nc1nnc(SCc2nnc(-c3ccccc3)o2)s1)c1ccccc1 | 866 s
CCOc1ccc(C(=O)N2CCC3(CC2)NC(=O)c2ccc(F)cc2N3C)cc1 | 767 s
O=C(CSc1ncnc2c(-c3ccccc3)c[nH]c12)Nc1ccc2c(c1)OCO2 | 824 s
O=C(c1cc(=O)c2ccccc2o1)N1CCC(c2nnc(-c3ccc(F)cc3)o2)CC1 | 746 s
CCCn1c(CCNC(=O)c2ccc(C#N)cc2)nc2cccnc21 | 662 s
CCn1cc2c3c(cccc31)CN(C(=O)Nc1cc(C)ccc1OC)CC2 | 1080 s
O=C(NCc1ccc(N2CCOCC2)nc1)c1cccc(Br)c1 | 626 s
